{"source": "paper PMC4512978", "about": "“Synthesis and evaluation in rats of homologous series of [^18F]-labeled dopamine D2/3 receptor agonists based on the 2-aminomethylchroman scaffold as potential PET tracers” (EJNMMI Research, 2015)", "system": "striatal D2/3R", "experiment": "Ex vivo autoradiography study in rats", "description": "To further assess the specific binding of [^18F]FEt-AMC13 to the striatal D2/3R, two groups of rats were anesthetized, pre-treated with saline (n = 3) or raclopride (n = 3), and 26 ± 3 min later injected with a bolus of [^18F]FEt-AMC13 (4.2 ± 1.4 MBq, 0.14 ± 0.04 nmol/kg) into the penile vein. Rats were sacrificed by heart extirpation 35 min later. Brains were quickly extracted and separated into two halves along the sagittal symmetry plane or along the coronal plane spanning the thalamus.\nOne half of the brain (rostral or randomly taken left/right) was quickly frozen over liquid nitrogen and prepared for cutting on the microtome in the same manner as brains used for in vitro autoradiography. Slices 40 μm thick were cut, mounted on Superfrost glass slides, permitted to dry, and then directly applied to the phosphor storage screens.\nDegree of D2/3R-specific binding of the tracers was characterized by BPND (as given above) or the specific binding ratio (SBR) given as target region activity/cerebellar activity - 1. Both were calculated under control conditions and in response to the raclopride challenge.", "note": "Where “and” joins values, the source holds several entries; their conditions need not be identical. Equal values may be shown once.", "data": [{"smiles": "Oc1ccc2c(c1)O[C@@H](CNCc1ccc(OCC[18F])cc1)CC2", "note": "[[^18F]FEt-AMC13]", "values": [{"measurement": "Ex vivo autoradiography-based SBR", "setting": "1 mg/kg raclopride", "result": "1.06 ± 0.17"}, {"measurement": "decrease of ex vivo autoradiography-based SBR", "setting": "1 mg/kg raclopride, p < 0.01", "result": 39, "unit": "%"}, {"measurement": "Striatum-to-cerebellum uptake ratio (ex vivo autoradiography)", "setting": "35 min post-injection, saline pre-treated rats", "result": "2.8 and 2.81 ± 0.29"}, {"measurement": "Ex vivo autoradiography-based SBR", "setting": "saline pre-treated", "result": "1.81 ± 0.29"}]}]}
